Tests used:
Assay type in all cases: cell-based
BaF3_HER2WT cells = BaF3_HER2WT cells (Homo sapiens, UniProt P04626); assay: Cell growth inhibition assay (CellTiterGlo), BaF3_HER2WT; details: 3-day treatment, CellTiterGlo, read-out: Cell growth inhibition activity, HER2 WT
BaF3_HER2YVMA cells = BaF3_HER2YVMA cells (Homo sapiens, UniProt P04626, DUP772-775, cells depend on it); assay: Cell growth inhibition assay (CellTiterGlo), BaF3_HER2YVMA; details: 3-day treatment, CellTiterGlo, read-out: Cell growth inhibition activity, HER2 - YVMA
Chain of BaF3_HER2YVMA cells (P04626 with tags, fused parts or gaps DUP772-775): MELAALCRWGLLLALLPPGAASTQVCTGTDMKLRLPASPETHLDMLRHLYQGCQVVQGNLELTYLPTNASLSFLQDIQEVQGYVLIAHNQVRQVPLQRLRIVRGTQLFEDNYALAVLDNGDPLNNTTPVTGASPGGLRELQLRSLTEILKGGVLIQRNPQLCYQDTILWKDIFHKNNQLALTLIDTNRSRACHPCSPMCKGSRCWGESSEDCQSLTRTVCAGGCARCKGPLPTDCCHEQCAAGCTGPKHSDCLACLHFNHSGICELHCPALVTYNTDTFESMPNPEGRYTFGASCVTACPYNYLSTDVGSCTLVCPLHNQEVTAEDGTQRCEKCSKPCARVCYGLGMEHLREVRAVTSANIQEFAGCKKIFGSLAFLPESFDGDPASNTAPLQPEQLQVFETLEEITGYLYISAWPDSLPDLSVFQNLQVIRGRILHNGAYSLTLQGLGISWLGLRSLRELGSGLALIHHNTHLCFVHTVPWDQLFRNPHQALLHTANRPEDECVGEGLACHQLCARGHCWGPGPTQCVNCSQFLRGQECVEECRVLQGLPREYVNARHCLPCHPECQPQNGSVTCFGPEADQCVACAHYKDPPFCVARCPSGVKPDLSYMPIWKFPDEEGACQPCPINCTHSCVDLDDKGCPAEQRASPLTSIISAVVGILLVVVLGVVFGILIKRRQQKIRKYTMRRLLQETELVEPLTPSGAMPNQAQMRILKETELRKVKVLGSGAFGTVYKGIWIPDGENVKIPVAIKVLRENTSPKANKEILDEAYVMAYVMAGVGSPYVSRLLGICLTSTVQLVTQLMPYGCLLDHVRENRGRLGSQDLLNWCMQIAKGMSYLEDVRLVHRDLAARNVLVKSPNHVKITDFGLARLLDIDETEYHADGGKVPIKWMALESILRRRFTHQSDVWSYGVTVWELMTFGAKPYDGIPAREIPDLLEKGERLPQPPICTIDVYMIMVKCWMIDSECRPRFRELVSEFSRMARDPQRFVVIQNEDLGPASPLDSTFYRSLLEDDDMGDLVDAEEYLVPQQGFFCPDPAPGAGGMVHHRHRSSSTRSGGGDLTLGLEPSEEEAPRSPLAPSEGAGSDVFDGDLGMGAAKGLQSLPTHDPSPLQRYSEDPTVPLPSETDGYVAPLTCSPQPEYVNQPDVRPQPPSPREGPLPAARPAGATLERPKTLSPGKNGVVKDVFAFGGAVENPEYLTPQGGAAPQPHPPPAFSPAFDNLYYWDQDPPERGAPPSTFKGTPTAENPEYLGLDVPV

BaF3_EGFRWT cells = BaF3_EGFRWT cells (Homo sapiens, UniProt P00533); assay: Cell growth inhibition assay (CellTiterGlo), BaF3_EGFRWT; details: 3-day treatment, CellTiterGlo, read-out: Cell growth inhibition activity, EGFR WT
Chain of BaF3_EGFRWT cells (P00533 whole entry, change not shown): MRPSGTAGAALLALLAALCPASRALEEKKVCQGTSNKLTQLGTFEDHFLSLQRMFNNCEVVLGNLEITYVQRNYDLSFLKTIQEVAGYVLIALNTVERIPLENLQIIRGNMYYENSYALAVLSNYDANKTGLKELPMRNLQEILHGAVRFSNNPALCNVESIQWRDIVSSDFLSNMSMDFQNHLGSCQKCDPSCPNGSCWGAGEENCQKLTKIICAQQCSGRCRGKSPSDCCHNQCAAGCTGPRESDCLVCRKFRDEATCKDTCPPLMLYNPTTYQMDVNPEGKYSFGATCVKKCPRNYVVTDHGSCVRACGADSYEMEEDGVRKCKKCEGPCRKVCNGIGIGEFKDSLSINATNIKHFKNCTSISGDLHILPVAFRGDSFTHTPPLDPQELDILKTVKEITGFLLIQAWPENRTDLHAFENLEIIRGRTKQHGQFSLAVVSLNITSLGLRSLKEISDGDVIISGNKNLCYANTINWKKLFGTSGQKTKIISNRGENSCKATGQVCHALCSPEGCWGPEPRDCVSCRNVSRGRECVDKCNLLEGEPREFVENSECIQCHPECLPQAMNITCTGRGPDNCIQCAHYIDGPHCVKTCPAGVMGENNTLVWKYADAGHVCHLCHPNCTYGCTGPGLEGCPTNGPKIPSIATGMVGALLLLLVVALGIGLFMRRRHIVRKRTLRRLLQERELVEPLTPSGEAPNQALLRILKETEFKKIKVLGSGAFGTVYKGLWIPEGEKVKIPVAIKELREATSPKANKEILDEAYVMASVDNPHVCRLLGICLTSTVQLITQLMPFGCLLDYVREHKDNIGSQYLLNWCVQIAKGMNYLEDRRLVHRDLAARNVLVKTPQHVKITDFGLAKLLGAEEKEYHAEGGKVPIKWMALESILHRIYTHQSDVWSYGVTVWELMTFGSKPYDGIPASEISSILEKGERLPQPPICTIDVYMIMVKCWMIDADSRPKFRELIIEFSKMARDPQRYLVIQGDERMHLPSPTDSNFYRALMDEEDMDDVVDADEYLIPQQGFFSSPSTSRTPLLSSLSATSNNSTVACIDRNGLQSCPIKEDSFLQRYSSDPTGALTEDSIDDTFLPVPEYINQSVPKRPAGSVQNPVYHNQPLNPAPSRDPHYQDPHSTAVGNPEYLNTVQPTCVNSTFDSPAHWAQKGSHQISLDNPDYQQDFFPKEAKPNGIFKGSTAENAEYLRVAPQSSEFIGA

Chain of BaF3_HER2WT cells (P04626 whole entry, change not shown): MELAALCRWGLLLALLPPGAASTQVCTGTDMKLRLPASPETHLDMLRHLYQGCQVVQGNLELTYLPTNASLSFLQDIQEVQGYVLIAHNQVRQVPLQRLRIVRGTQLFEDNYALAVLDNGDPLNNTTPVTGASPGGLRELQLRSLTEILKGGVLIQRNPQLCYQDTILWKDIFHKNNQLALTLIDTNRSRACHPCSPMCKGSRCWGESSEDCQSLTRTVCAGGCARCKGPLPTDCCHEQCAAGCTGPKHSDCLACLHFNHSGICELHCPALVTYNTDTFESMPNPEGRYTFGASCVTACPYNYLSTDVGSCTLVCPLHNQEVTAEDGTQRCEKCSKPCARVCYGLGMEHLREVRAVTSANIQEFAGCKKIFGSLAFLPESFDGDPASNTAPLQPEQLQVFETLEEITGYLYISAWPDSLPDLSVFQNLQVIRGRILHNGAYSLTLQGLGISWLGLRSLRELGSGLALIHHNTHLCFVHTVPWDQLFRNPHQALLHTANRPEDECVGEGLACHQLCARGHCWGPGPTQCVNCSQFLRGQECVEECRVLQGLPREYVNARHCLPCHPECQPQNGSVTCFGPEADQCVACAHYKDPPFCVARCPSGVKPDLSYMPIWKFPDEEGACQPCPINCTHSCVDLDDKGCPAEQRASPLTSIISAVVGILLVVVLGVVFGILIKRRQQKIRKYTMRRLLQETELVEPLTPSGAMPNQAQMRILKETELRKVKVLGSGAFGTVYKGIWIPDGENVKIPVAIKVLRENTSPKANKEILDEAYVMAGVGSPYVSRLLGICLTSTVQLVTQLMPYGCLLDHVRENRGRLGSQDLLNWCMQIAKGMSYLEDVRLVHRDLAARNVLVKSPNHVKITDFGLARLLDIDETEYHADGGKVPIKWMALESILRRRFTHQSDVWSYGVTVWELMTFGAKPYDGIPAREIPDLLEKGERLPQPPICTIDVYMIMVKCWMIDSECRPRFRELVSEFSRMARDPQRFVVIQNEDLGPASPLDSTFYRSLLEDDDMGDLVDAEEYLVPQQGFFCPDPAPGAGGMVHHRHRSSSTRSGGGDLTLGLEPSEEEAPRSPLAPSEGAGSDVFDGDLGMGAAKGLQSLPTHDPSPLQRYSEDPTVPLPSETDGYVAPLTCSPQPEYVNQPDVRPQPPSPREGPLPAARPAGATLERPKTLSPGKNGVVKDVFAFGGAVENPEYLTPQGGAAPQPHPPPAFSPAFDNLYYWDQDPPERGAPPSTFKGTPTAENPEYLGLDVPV

| Compound | GI50 (BaF3_HER2WT cells) [nM] | GI50 (BaF3_HER2YVMA cells) [nM] | GI50 (BaF3_EGFRWT cells) [nM] |
| --- | --- | --- | --- |
| Cc1cc(Nc2ncnn3cc(F)c(C4CCN(C(=O)/C=C/CN(C)C)CC4)c23)ccc1Oc1ccn2ncnc2c1 [Example 152, (E)-1-(4-(4-((4-([1,2,4]triazolo[1,5-a]pyridin-7-yloxy)-3-methylphenyl)amino)-6-fluoropyrrolo[2,1-f][1,2,4]triazin-5-yl)piperidin-1-yl)-4-(dimethylamino)but-2-en-1-one] | < 200 | < 200 | 1500 to 5000 |
| CNC/C=C/C(=O)N1CC(c2ccn3ncnc(Nc4ccc(Oc5ccc6c(c5)ncn6C)c(C)c4)c23)C1 [Example 153, (E)-1-(3-(4-((3-methyl-4-((1-methyl-1H-benzo[d]imidazol-5-yl)oxy)phenyl)amino)pyrrolo[2,1-f][1,2,4]triazin-5-yl)azetidin-1-yl)-4-(methylamino)but-2-en-1-one] | 1500 to 5000 | 1500 to 5000 | 1500 to 5000 |
| Cc1cc(Nc2ncnn3ccc(C4CCN(C(=O)/C=C/CO)CC4)c23)ccc1Oc1ccn2ncnc2c1 [Example 154, (E)-1-(4-(4-((4-([1,2,4]triazolo[1,5-a]pyridin-7-yloxy)-3-methylphenyl)amino)pyrrolo[2,1-f][1,2,4]triazin-5-yl)piperidin-1-yl)-4-hydroxybut-2-en-1-one] | < 200 | < 200 | 1500 to 5000 |
| Cc1cc(Nc2ncnn3ccc(C4CN(C(=O)/C=C/CN(C)C)C4)c23)ccc1Oc1ccn2ccnc2c1 [Example 157, (E)-4-(dimethylamino)-1-(3-(4-((4-(imidazo[1,2-a]pyridin-7-yloxy)-3-methylphenyl)amino)pyrrolo[2,1-f][1,2,4]triazin-5-yl)azetidin-1-yl)but-2-en-1-one] | < 200 | < 200 | 1500 to 5000 |
| Cc1cc(Nc2ncnn3ccc(C4CN(C(=O)/C=C/CN(C)C)C4)c23)ccc1Oc1cc2ncnn2cn1 [Example 158, (E)-1-(3-(4-((4-([1,2,4]triazolo[1,5-c]pyrimidin-7-yloxy)-3-methylphenyl)amino)pyrrolo[2,1-f][1,2,4]triazin-5-yl)azetidin-1-yl)-4-(dimethylamino)but-2-en-1-one] | < 200 | < 200 | 500 to 1500 |
| Cc1cc(Nc2ncnn3ccc(C4CN(C(=O)/C=C/C56CCCN5CCC6)C4)c23)ccc1Oc1ccn2ncnc2c1 [Example 159, (E)-1-(3-(4-((4-([1,2,4]triazolo[1,5-a]pyridin-7-yloxy)-3-methylphenyl)amino)pyrrolo[2,1-f][1,2,4]triazin-5-yl)azetidin-1-yl)-3-(tetrahydro-1H-pyrrolizin-7a(5H)-yl)prop-2-en-1-one] | < 200 | < 200 | 1500 to 5000 |
| Cc1cc(Nc2ncnn3ccc(C4CN(C(=O)/C=C\C56CCCN5CCC6)C4)c23)ccc1Oc1ccn2ncnc2c1 [Example 160, (Z)-1-(3-(4-((4-([1,2,4]triazolo[1,5-a]pyridin-7-yloxy)-3-methylphenyl)amino)pyrrolo[2,1-f][1,2,4]triazin-5-yl)azetidin-1-yl)-3-(tetrahydro-1H-pyrrolizin-7a(5H)-yl)prop-2-en-1-one] | < 200 | < 200 | 1500 to 5000 |
| Cc1cc(Nc2ncnn3ccc(C4CN(C(=O)/C=C/CN5CC(F)C5)C4)c23)ccc1Oc1ccc2c(c1)ncn2C [Example 161, (E)-4-(3-fluoroazetidin-1-yl)-1-(3-(4-((3-methyl-4-((1-methyl-1H-benzo[d]imidazol-5-yl)oxy)phenyl)amino)pyrrolo[2,1-f][1,2,4]triazin-5-yl)azetidin-1-yl)but-2-en-1-one] | < 200 | < 200 | 1500 to 5000 |
| Cc1cc(Nc2ncnn3ccc(C4CCN(C(=O)/C=C/CN5CC(F)C5)CC4)c23)ccc1Oc1ccc2c(c1)ncn2C [Example 162, (E)-4-(3-fluoroazetidin-1-yl)-1-(4-(4-((3-methyl-4-((1-methyl-1H-benzo[d]imidazol-5-yl)oxy)phenyl)amino)pyrrolo[2,1-f][1,2,4]triazin-5-yl)piperidin-1-yl)but-2-en-1-one] | 200 to 500 | 500 to 1500 | 1500 to 5000 |
| Cc1cc(Nc2ncnn3ccc(C4CCN(C(=O)/C=C/CN5CC(F)C5)CC4)c23)ccc1Oc1ccn2ncnc2c1 [Example 163, (E)-1-(4-(4-((4-([1,2,4]triazolo[1,5-a]pyridin-7-yloxy)-3-methylphenyl)amino)pyrrolo[2,1-f][1,2,4]triazin-5-yl)piperidin-1-yl)-4-(3-fluoroazetidin-1-yl)but-2-en-1-one] | < 200 | < 200 | 1500 to 5000 |

Next, values leading:

| GI50 (BaF3_HER2WT cells) [nM] | GI50 (BaF3_HER2YVMA cells) [nM] | GI50 (BaF3_EGFRWT cells) [nM] | Compound |
| --- | --- | --- | --- |
| < 200 | < 200 | 1500 to 5000 | Cc1cc(Nc2ncnn3ccc(C4CCN(C(=O)/C=C/CN5CCC(F)C5)CC4)c23)ccc1Oc1ccn2ncnc2c1 (stereo not drawn) [Example 164, (E)-1-(4-(4-((4-([1,2,4]triazolo[1,5-a]pyridin-7-yloxy)-3-methylphenyl)amino)pyrrolo[2,1-f][1,2,4]triazin-5-yl)piperidin-1-yl)-4-(3-fluoropyrrolidin-1-yl)but-2-en-1-one] |
| < 200 | < 200 | 1500 to 5000 | CO[C@H]1CN(C/C=C/C(=O)N2CC(c3ccn4ncnc(Nc5ccc(Oc6ccc7c(c6)ncn7C)c(C)c5)c34)C2)C[C@H]1OC [Example 165, (E)-4-((3R,4S)-3,4-dimethoxypyrrolidin-1-yl)-1-(3-(4-((3-methyl-4-((1-methyl-1H-benzo[d]imidazol-5-yl)oxy)phenyl)amino)pyrrolo[2,1-f][1,2,4]triazin-5-yl)azetidin-1-yl)but-2-en-1-one] |
| < 200 | < 200 | 1500 to 5000 | CO[C@@H]1CN(C/C=C/C(=O)N2CC(c3ccn4ncnc(Nc5ccc(Oc6ccc7c(c6)ncn7C)c(C)c5)c34)C2)C[C@H]1OC [Example 166, (E)-4-((3R,4R)-3,4-dimethoxypyrrolidin-1-yl)-1-(3-(4-((3-methyl-4-((1-methyl-1H-benzo[d]imidazol-5-yl)oxy)phenyl)amino)pyrrolo[2,1-f][1,2,4]triazin-5-yl)azetidin-1-yl)but-2-en-1-one] |
| < 200 | < 200 | 1500 to 5000 | CO[C@H]1CN(C/C=C/C(=O)N2CCC(c3ccn4ncnc(Nc5ccc(Oc6ccc7c(c6)ncn7C)c(C)c5)c34)CC2)C[C@H]1OC [Example 167, (E)-4-((3R,4S)-3,4-dimethoxypyrrolidin-1-yl)-1-(4-(4-((3-methyl-4-((1-methyl-1H-benzo[d]imidazol-5-yl)oxy)phenyl)amino)pyrrolo[2,1-f][1,2,4]triazin-5-yl)piperidin-1-yl)but-2-en-1-one] |
| < 200 | < 200 | 1500 to 5000 | CO[C@@H]1CN(C/C=C/C(=O)N2CCC(c3ccn4ncnc(Nc5ccc(Oc6ccc7c(c6)ncn7C)c(C)c5)c34)CC2)C[C@H]1OC [Example 168, (E)-4-((3R,4R)-3,4-dimethoxypyrrolidin-1-yl)-1-(4-(4-((3-methyl-4-((1-methyl-1H-benzo[d]imidazol-5-yl)oxy)phenyl)amino)pyrrolo[2,1-f][1,2,4]triazin-5-yl)piperidin-1-yl)but-2-en-1-one] |
